This is an account of results in article PMC4671058, “Heterologous expression of newly identified galectin-8 from sea urchin embryos produces recombinant protein with lactose binding specificity and anti-adhesive activity” (Scientific Reports, 2015).

SMILES strings stand for the structures.

The assay addresses T1, Pl-GAL-8 (Paracentrotus lividus, UniProt A0A0U5C3R9).
T1 construct: gene galectin-8; tags kept; expressed in E. coli BL21(DE3)
T1 sequence (A0A0U5C3R9 1-311): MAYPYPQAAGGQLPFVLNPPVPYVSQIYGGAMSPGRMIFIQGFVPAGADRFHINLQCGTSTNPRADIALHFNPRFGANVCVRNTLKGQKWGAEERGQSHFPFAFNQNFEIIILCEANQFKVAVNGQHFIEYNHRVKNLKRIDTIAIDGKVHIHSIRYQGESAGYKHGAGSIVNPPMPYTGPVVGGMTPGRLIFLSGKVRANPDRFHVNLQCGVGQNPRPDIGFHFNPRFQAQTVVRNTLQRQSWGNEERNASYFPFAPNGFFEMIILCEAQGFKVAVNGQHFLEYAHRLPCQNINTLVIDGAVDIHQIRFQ
Kind of assay: inhibition of hemagglutination of human red blood cells. It counts as cell-based. To be noted: 0.25 uM protein; PBS, room temperature, 40 min; lowest dose tested (1-20 mM).

`OC[C@H]1O[C@@H](O[C@H]2[C@H](O)[C@@H](O)C(O)O[C@@H]2CO)[C@H](O)[C@@H](O)[C@H]1O` (stereo partly shown) [lactose] showed an effective inhibitory concentration of 1 mM.
